Read-outs that look alike come from different tables or passages of the source.
Legend:
HCV replicon genotype 1a = assay: HCV replicon assay, genotype 1a (cell ELISA for replicon-encoded NS3/4A); assay type: cell-based, hepatitis C virus (HCV)
How it was run: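 Stable G418-selected neomycin-resistant HCV replicon cells were plated with serially diluted compound without G418 and incubated 96 h. After washing and lysis, replicon RNA was measured indirectly by cell ELISA for replicon-encoded NS3/4A; IC50 from four-parameter fit relative to DMSO control.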

HCV replicon genotype 1b = assay: HCV replicon assay, genotype 1b (cell ELISA for replicon-encoded NS3/4A); assay type: cell-based, hepatitis C virus (HCV)
How it was run: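 Genotype 1b replicon cells (neomycin-selected, G418 removed for assay) incubated 96 h with compound dilution series. Replication measured by cell ELISA for replicon-encoded NS3/4A after lysis; IC50 from four-parameter fit relative to DMSO control.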

[1] = Hepatitis C virus, 96 h, read-out: 1a IC50 (nM), genotype 1a replicon cells, 96 hours incubation, NS3/4A ELISA readout, % of DMSO control
[2] = Hepatitis C virus, 96 h, read-out: 1b IC50 (nM), genotype 1b replicon cells, 96 hours incubation, NS3/4A ELISA readout, % of DMSO control

**Q.** Which results are given for `CNC(=O)c1c(-c2ccc(F)cc2)oc2cc(N(C)S(C)(=O)=O)c(-c3ccc4ncn5c6cccc(F)c6cc5c4n3)cc12` [Example 55, 2-(4-fluorophenyl)-5-(11-fluoropyrido[3′,2′:4,5]pyrimido[1,6-a]indol-2-yl)-N-methyl-6-(N-methylmethylsulfonamido)benzofuran-3-carboxamide]?
**A.** IC50 (HCV replicon genotype 1a; read-out: 1a IC50, genotype 1a replicon cells, 96 hours incubation, NS3/4A ELISA readout, % of DMSO control): 1.55 nM; IC50 (HCV replicon genotype 1b; read-out: 1b IC50, genotype 1b replicon cells, 96 hours incubation, NS3/4A ELISA readout, % of DMSO control): 2.01 nM

**Q.** With `CNC(=O)c1c(-c2ccc(F)cc2)oc2cc(N(C)S(C)(=O)=O)c(-c3ccc4c(c3)-c3cc5ccccc5n3CN4S(C)(=O)=O)cc12` [Example 42, 2-(4-fluorophenyl)-N-methyl-6-(N-methylmethylsulfonamido)-5-(5-(methylsulfonyl)-5,6-dihydroindolo[1,2-c]quinazolin-2-yl)benzofuran-3-carboxamide] as the molecule, how does the IC50 (HCV replicon genotype 1a; [1]) read?
**A.** The IC50 was 17.2 nM.

**Q.** What about the IC50 (HCV replicon genotype 1b; [2]) of the same molecule?
**A.** The IC50 was 13.1 nM.

**Q.** `CNC(=O)c1c(-c2ccc(F)cc2)oc2cc(N(C)S(C)(=O)=O)c(-c3cc4c(cn3)nc(CN3CC(C)(F)C3)n3c5cccc(F)c5cc43)cc12` [Example 118] was tested. Which IC50 (HCV replicon genotype 1a; [1]) did it give?
**A.** The IC50 was 2.67 nM.

**Q.** And the IC50 (HCV replicon genotype 1b; [2])?
**A.** The IC50 was 4.24 nM.

**Q.** How did the IC50 (HCV replicon genotype 1a; [1]) turn out when `CNC(=O)c1c(-c2ccc(F)cc2F)oc2cc(N(C)S(C)(=O)=O)c(-c3ccc4nc(CN5CCC(F)(F)CC5)n5c6cccc(F)c6cc5c4n3)cc12` [Example 47] was run?
**A.** The IC50 was 9.67 nM.

**Q.** And the IC50 (HCV replicon genotype 1b; [2])?
**A.** The IC50 was 11.2 nM.

**Q.** With `CNC(=O)c1c(-c2ccc(F)cc2)oc2cc(N(C)S(C)(=O)=O)c(-c3ccc4nc(CC5CC[C@@H](OC)C5)n5c6cccc(C#N)c6cc5c4n3)cc12` (stereo partly drawn) [Example 133] as the molecule, how does the IC50 (HCV replicon genotype 1a; [1]) read?
**A.** The IC50 was 2.98 nM.

**Q.** What about the IC50 (HCV replicon genotype 1b; [2]) of the same molecule?
**A.** Its IC50 is 3.56 nM.

**Q.** Which results are given for `CNC(=O)c1c(-c2ccc(F)cc2)oc2cc(N(C)S(C)(=O)=O)c(-c3cc4c(cn3)nc(CN3CC(C)(C#N)C3)n3c5cccc(F)c5cc43)cc12` [Example 119]?
**A.** IC50 (HCV replicon genotype 1a; [1]): 1.74 nM; IC50 (HCV replicon genotype 1b; [2]): 3.59 nM

**Q.** How did the IC50 (HCV replicon genotype 1a; [1]) turn out when `CNC(=O)c1c(-c2ccc(F)cc2)oc2cc(N(C)S(C)(=O)=O)c(-c3ccc4nc(CN5CC(C)(OC)C5)n5c6cccc(F)c6cc5c4n3)cc12` [Example 104] was run?
**A.** Its IC50 is 2.31 nM.

**Q.** What about the IC50 (HCV replicon genotype 1b; [2]) of the same molecule?
**A.** Its IC50 is 5.23 nM.

**Q.** `CNC(=O)c1c(-c2ccc(F)cc2)nn2cc(N(C)S(C)(=O)=O)c(-c3ccc4ncn5c6cccc(F)c6cc5c4n3)cc12` [Example 16, 2-(4-fluorophenyl)-5-(11-fluoropyrido[3′,2′:4,5]pyrimido[1,6-a]indol-2-yl)-N-methyl-6-(N-methylmethylsulfonamido)pyrazolo[1,5-a]pyridine-3-carboxamide] was tested. Which IC50 (HCV replicon genotype 1a; [1]) did it give?
**A.** Its IC50 is 0.954 nM.

**Q.** What about the IC50 (HCV replicon genotype 1b; [2]) of the same molecule?
**A.** Its IC50 is 2.22 nM.

**Q.** What does the source list for `CNC(=O)c1c(-c2ccc(F)cc2)oc2cc(N(C)S(C)(=O)=O)c(-c3ccc4c(n3)-c3cc5c(F)cccc5n3C(CC(=O)O)N4)cc12` (stereo not drawn) [Example 72, 2-(11-fluoro-2-(2-(4-fluorophenyl)-3-(methylcarbamoyl)-6-(N-methylmethylsulfonamido)benzofuran-5-yl)-5,6-dihydropyrido[3′,2′:4,5]pyrimido[1,6-a]indol-6-yl)acetic acid]?
**A.** IC50 (HCV replicon genotype 1a; [1]): 22.8 nM; IC50 (HCV replicon genotype 1b; [2]): 15.6 nM

**Q.** Which results are given for `CNC(=O)c1c(C2CC2)oc2cc(N(C)S(C)(=O)=O)c(-c3ccc4nc(CN5CC(F)C5)n5c6cccc(F)c6cc5c4n3)cc12` [Example 151]?
**A.** IC50 (HCV replicon genotype 1a; [1]): 2.66 nM; IC50 (HCV replicon genotype 1b; [2]): 3.43 nM

**Q.** How did the IC50 (HCV replicon genotype 1a; [1]) turn out when `CNC(=O)c1c(-c2ccc(F)cc2)oc2cc(N(C)S(C)(=O)=O)c(-c3ccc4nc(CN)n5c6cccc(F)c6cc5c4n3)cc12` [Example 111] was run?
**A.** Its IC50 is 4.15 nM.

**Q.** What about the IC50 (HCV replicon genotype 1b; [2]) of the same molecule?
**A.** The IC50 was 7.79 nM.

**Q.** With `CCOP(=O)(Cc1nc2ccc(-c3cc4c(C(=O)NC)c(-c5ccc(F)cc5)oc4cc3N(C)S(C)(=O)=O)nc2c2cc3c(F)cccc3n12)OCC` [Example 49, diethyl ((11-fluoro-2-(2-(4-fluorophenyl)-3-(methylcarbamoyl)-6-(N-methylmethylsulfonamido)benzofuran-5-yl)pyrido[3′,2′:4,5]pyrimido[1,6-a]indol-6-yl)methyl)phosphonate] as the molecule, how does the IC50 (HCV replicon genotype 1a; [1]) read?
**A.** The IC50 was 2.78 nM.

**Q.** And the IC50 (HCV replicon genotype 1b; [2])?
**A.** The IC50 was 4.88 nM.

**Q.** `CNC(=O)c1c(-c2ccc(F)cc2F)oc2cc(N(C)S(C)(=O)=O)c(-c3ccc4nc(CN5CC(F)C5)n5c6cccc(F)c6cc5c4n3)cc12` [Example 37] was tested. Which IC50 (HCV replicon genotype 1a; [1]) did it give?
**A.** The IC50 was 5.26 nM.

**Q.** What about the IC50 (HCV replicon genotype 1b; [2]) of the same molecule?
**A.** The IC50 was 7.26 nM.

**Q.** `CNC(=O)c1c(-c2ccc(F)cc2)oc2cc(N(C)S(C)(=O)=O)c(-c3ccc4nc(CN5CC(C)(F)C5)n5c6cccc(F)c6cc5c4n3)cc12` [Example 81] was tested. Which IC50 (HCV replicon genotype 1a; [1]) did it give?
**A.** Its IC50 is 3.24 nM.

**Q.** And the IC50 (HCV replicon genotype 1b; [2])?
**A.** Its IC50 is 3.28 nM.

**Q.** Which results are given for `CNC(=O)c1c(-c2ccc(F)cc2F)oc2cc(N(C)S(C)(=O)=O)c(-c3ccc4nc(CN5CC(F)(F)C5)n5c6cccc(F)c6cc5c4n3)cc12` [Example 48]?
**A.** IC50 (HCV replicon genotype 1a; [1]): 2.82 nM; IC50 (HCV replicon genotype 1b; [2]): 3.04 nM

**Q.** Which IC50 (HCV replicon genotype 1a; [1]) does the source give for `CNC(=O)c1c(-c2ccc(F)cc2F)oc2cc(N(C)S(C)(=O)=O)c(-c3ccc4nc(CN5CC6CC5CO6)n5c6cccc(F)c6cc5c4n3)cc12` (stereo not drawn) [Example 146] here?
**A.** The IC50 was 3.38 nM.

**Q.** And the IC50 (HCV replicon genotype 1b; [2])?
**A.** Its IC50 is 3.38 nM.

**Q.** `CNC(=O)c1c(-c2ccc(F)cc2)oc2cc(N(C)S(C)(=O)=O)c(-c3ccc4nc(CN5CC(C)(C#N)C5)n5c6cccc(F)c6cc5c4n3)cc12` [Example 89] was tested. Which IC50 (HCV replicon genotype 1a; [1]) did it give?
**A.** The IC50 was 3.41 nM.

**Q.** And the IC50 (HCV replicon genotype 1b; [2])?
**A.** The IC50 was 3.45 nM.

**Q.** Which results are given for `CNC(=O)c1c(-c2ccc(F)cc2F)oc2cc(N(C)S(C)(=O)=O)c(-c3ccc4nc(CN5CCC(F)(C#N)CC5)n5c6cccc(F)c6cc5c4n3)cc12` [Example 141]?
**A.** IC50 (HCV replicon genotype 1a; [1]): 5.48 nM; IC50 (HCV replicon genotype 1b; [2]): 5.99 nM

**Q.** `CNC(=O)c1c(-c2ccc(F)cc2F)oc2cc(N(C)S(C)(=O)=O)c(-c3ccc4nc(CN5CC(C)(C#N)C5)n5c6cccc(F)c6cc5c4n3)cc12` [Example 139] was tested. Which IC50 (HCV replicon genotype 1a; [1]) did it give?
**A.** Its IC50 is 2.79 nM.

**Q.** What about the IC50 (HCV replicon genotype 1b; [2]) of the same molecule?
**A.** Its IC50 is 3.16 nM.

**Q.** What does the source list for `CNC(=O)c1c(-c2ccc(F)cc2F)oc2cc(N(C)S(C)(=O)=O)c(-c3ccc4nc(CN5CC(C)(O)C5)n5c6cccc(F)c6cc5c4n3)cc12` [Example 142]?
**A.** IC50 (HCV replicon genotype 1a; [1]): 3.05 nM; IC50 (HCV replicon genotype 1b; [2]): 2.85 nM

**Q.** For `CNC(=O)c1c(-c2ccc(F)cc2)oc2cc(N(C)S(C)(=O)=O)c(-c3ccc4nc(CN5CC(O)(C6CC6)C5)n5c6cccc(F)c6cc5c4n3)cc12` [Example 95], which IC50 (HCV replicon genotype 1a; [1]) is on record?
**A.** Its IC50 is 4.55 nM.

**Q.** What about the IC50 (HCV replicon genotype 1b; [2]) of the same molecule?
**A.** The IC50 was 9.12 nM.

**Q.** What does the source list for `CNC(=O)c1c(-c2ccc(F)cc2F)oc2cc(N(C)S(C)(=O)=O)c(-c3ccc4nc(CN5CCC[C@H]5C(F)(F)F)n5c6cccc(F)c6cc5c4n3)cc12` [Example 145]?
**A.** IC50 (HCV replicon genotype 1a; [1]): 20 nM; IC50 (HCV replicon genotype 1b; [2]): 12.2 nM

**Q.** Which IC50 (HCV replicon genotype 1a; [1]) does the source give for `CNC(=O)c1c(-c2ccc(F)cc2)oc2cc(N(C)S(C)(=O)=O)c(-c3ccc4c(n3)-c3cc5c(F)cccc5n3CN4CC(=O)O)cc12` [Example 70, 2-(11-fluoro-2-(2-(4-fluorophenyl)-3-(methylcarbamoyl)-6-(N-methylmethylsulfonamido)benzofuran-5-yl)pyrido[3′,2′:4,5]pyrimido[1,6-a]indol-5(6H)-yl)acetic acid] here?
**A.** The IC50 was 35.2 nM.

**Q.** What about the IC50 (HCV replicon genotype 1b; [2]) of the same molecule?
**A.** Its IC50 is 26.8 nM.

**Q.** What does the source list for `CNC(=O)c1c(-c2ccc(F)cc2)oc2cc(N(C)S(C)(=O)=O)c(-c3ccc4c(n3)-c3cc5c(F)cccc5n3C(CO)N4)cc12` (stereo not drawn) [Example 64, 5-(11-fluoro-6-(hydroxymethyl)-5,6-dihydropyrido[3′,2′:4,5]pyrimido[1,6-a]indol-2-yl)-2-(4-fluorophenyl)-N-methyl-6-(N-methylmethylsulfonamido)benzofuran-3-carboxamide]?
**A.** IC50 (HCV replicon genotype 1a; [1]): 11.8 nM; IC50 (HCV replicon genotype 1b; [2]): 11.8 nM

**Q.** What does the source list for `CNC(=O)c1c(-c2ccc(OC)nc2)oc2cc(N(C)S(C)(=O)=O)c(-c3ccc4nc(CN5CC(F)C5)n5c6cccc(F)c6cc5c4n3)cc12` [Example 34]?
**A.** IC50 (HCV replicon genotype 1a; [1]): 2.43 nM; IC50 (HCV replicon genotype 1b; [2]): 4.66 nM

**Q.** What does the source list for `CNC(=O)c1c(-c2ccc(F)cc2)oc2cc(N(C)S(C)(=O)=O)c(-c3ccc4nc(CN5CC[C@H](OC)C5)n5c6cccc(F)c6cc5c4n3)cc12` [Example 91]?
**A.** IC50 (HCV replicon genotype 1a; [1]): 3.58 nM; IC50 (HCV replicon genotype 1b; [2]): 6.54 nM

**Q.** What does the source list for `CNC(=O)c1c(-c2ccc(F)cc2)oc2cc(N(C)S(C)(=O)=O)c(-c3ccc4nc(CN5CC6CC6C5)n5c6cccc(F)c6cc5c4n3)cc12` (stereo not drawn) [Example 102]?
**A.** IC50 (HCV replicon genotype 1a; [1]): 7.03 nM; IC50 (HCV replicon genotype 1b; [2]): 11.8 nM
